Data published in patent US11135322B2, “Radiofluorination method” (GE HEALTHCARE LIMITED, priority 2012, dated 2021).

Experiment: Hydrolytic stability of the metal halide complexes in aqueous solution (19F and 71Ga NMR studies)
Assay type: physicochemical
From the text: ^19F and ^71Ga NMR studies show complete conversion to [GaF3(Me3-tacn)]. Furthermore they confirm that the structure of the complex is retained in solution. […] The structure has also been confirmed crystallographically (FIG. 2). This provides clear evidence that direct incorporation of fluoride into the coordination sphere of carefully selected metal ions is entirely feasible, as well as establishing the high stability of the resulting fluoro complexes, even in aqueous solution.

Substance: [GaF3(Me3-tacn)].4H2O
- resistance to hydrolysis / hydrolytic stability (aqueous solution): resistant to hydrolysis
- stability relative to analogous halide or metal complexes (comparison with analogues): considerably more stable than the chloride and bromide analogues
